Laboratory results as given in PubChem BioAssay AID328 (DTP/NCI, 2004).
Inconclusive results and toxic doses are left out. The calls were made as follows: active = survival T/C of 150% or more; inactive = T/C below 125% in these data.

Test system: BDF1 mice, P388 leukemia ip, median survival T/C
Test: NCI In Vivo Anticancer Drug Screen. Data for tumor model P388 Leukemia (intraperitoneal) in B6D2F1 (BDF1) mice
Details: endpoint: median survival time, higher = longer survival
Method in brief: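 Read-out is survival of treated animals expressed relative to the vehicle group, as a T/C ratio.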

[1] = dose: 50.0 mg/kg/injection, schedule: Q01DX009 (ip), vehicle: saline with Tween-80
[2] = dose: 100.0 mg/kg/injection, schedule: Q01DX009 (ip), vehicle: saline with Tween-80
[3] = dose: 200.0 mg/kg/injection, schedule: Q01DX009 (ip), vehicle: saline with Tween-80

Measured: T/C

O=C1OC(=O)C2C3CCC(O3)C12 (configuration not stated)
inactive: dose: 0.39 mg/kg/injection, schedule: Q04DX003 (ip), vehicle: saline 100 % of control | dose: 0.65 mg/kg/injection, schedule: Q01DX001 (ip), vehicle: saline 104 % of control | dose: 0.78 mg/kg/injection, schedule: Q01DX009 (ip), vehicle: saline 105 % of control | dose: 0.78 mg/kg/injection, schedule: Q04DX003 (ip), vehicle: saline 100 % of control | dose: 1.31 mg/kg/injection, schedule: Q01DX001 (ip), vehicle: saline 100 % of control | dose: 1.56 mg/kg/injection, schedule: Q01DX009 (ip), vehicle: saline 100 % of control | dose: 1.56 mg/kg/injection, schedule: Q04DX003 (ip), vehicle: saline 100 % of control | dose: 2.3 mg/kg/injection, schedule: Q04DX003 (ip), vehicle: saline 110 % of control | dose: 2.62 mg/kg/injection, schedule: Q01DX001 (ip), vehicle: saline 100 % of control | dose: 3.5 mg/kg/injection, schedule: Q04DX003 (ip), vehicle: saline 115 % of control | dose: 5.2 mg/kg/injection, schedule: Q04DX003 (ip), vehicle: saline 100 % of control | dose: 5.25 mg/kg/injection, schedule: Q01DX001 (ip), vehicle: Klucel (hydroxypropylcellulose) (HPC) 91 % of control | dose: 5.25 mg/kg/injection, schedule: Q01DX001 (ip), vehicle: saline 95 % of control | dose: 7.2 mg/kg/injection, schedule: Q04DX003 (ip), vehicle: saline 100 % of control | dose: 21.0 mg/kg/injection, schedule: Q01DX001 (ip), vehicle: Klucel (hydroxypropylcellulose) (HPC) 87 % of control

CCOc1ccc(Nc2cc([N+](=O)[O-])ccc2C(=O)O)cc1
inactive: dose: 50.0 mg/kg/injection, schedule: Q04DX003 (ip), vehicle: saline with Tween-80 100 % of control | dose: 100.0 mg/kg/injection, schedule: Q04DX003 (ip), vehicle: saline with Tween-80 90 % of control | dose: 200.0 mg/kg/injection, schedule: Q04DX003 (ip), vehicle: saline with Tween-80 90 % of control

Clc1ccc(N=Cc2cccs2)cc1
inactive: [1] 96 % of control | [2] 102 % of control | [3] 88 % of control

CCCCCCC(C)NN (configuration not stated)
inactive: dose: 12.5 mg/kg/injection, schedule: Q04DX003 (ip), vehicle: saline 98 % of control | dose: 25.0 mg/kg/injection, schedule: Q04DX003 (ip), vehicle: saline 105 % of control | dose: 50.0 mg/kg/injection, schedule: Q04DX003 (ip), vehicle: saline 107 % of control

Nc1nc(N)c2cc(Sc3cccc(C(F)(F)F)c3)ccc2n1
inactive: [1] 113 % of control

Cc1cc(N(CCCl)CCCl)ccc1/C=N\Nc1nncn1N
active: dose: 35.0 mg/kg/injection, schedule: Q01DX007 (ip), vehicle: Klucel (hydroxypropylcellulose) (HPC) 157 % of control | dose: 50.0 mg/kg/injection, schedule: Q01DX007 (ip), vehicle: Klucel (hydroxypropylcellulose) (HPC) 175 % of control | dose: 75.0 mg/kg/injection, schedule: Q01DX007 (ip), vehicle: Klucel (hydroxypropylcellulose) (HPC) 211 % of control | dose: 132.0 mg/kg/injection, schedule: Q04DX003 (ip), vehicle: Klucel (hydroxypropylcellulose) (HPC) 213 % of control | dose: 132.0 mg/kg/injection, schedule: Q04DX003 (ip), vehicle: saline 163 % of control | dose: 200.0 mg/kg/injection, schedule: Q04DX003 (ip), vehicle: Klucel (hydroxypropylcellulose) (HPC) 218 % of control
inactive: dose: 45.0 mg/kg/injection, schedule: Q04DX003 (ip), vehicle: Klucel (hydroxypropylcellulose) (HPC) 120 % of control | dose: 100.0 mg/kg/injection, schedule: Q01DX009 (ip), vehicle: Klucel (hydroxypropylcellulose) (HPC) 118 % of control | dose: 200.0 mg/kg/injection, schedule: Q01DX009 (ip), vehicle: Klucel (hydroxypropylcellulose) (HPC) 90 % of control | dose: 300.0 mg/kg/injection, schedule: Q04DX003 (ip), vehicle: Klucel (hydroxypropylcellulose) (HPC) 122 % of control | dose: 300.0 mg/kg/injection, schedule: Q04DX003 (ip), vehicle: saline 90 % of control

CN(C)CCNCc1c[nH]c(=O)[nH]c1=O
inactive: [1] 97 % of control | [2] 94 % of control | [3] 93 % of control

CCCCCCC(=O)/C=C/c1ccc(N(C)C)cc1
inactive: [2] 97 % of control | [3] 97 % of control | dose: 400.0 mg/kg/injection, schedule: Q01DX009 (ip), vehicle: saline with Tween-80 93 % of control
